Here are results for eight compounds from US20230295133A1, “PROCESS FOR PREPARING A COMPOUND USEFUL TO TREAT MYCOSES” (PULMOCIDE LIMITED, priority 2014, published 2023).

For data set [1], the system named is aspergillus fumigatus infection of BEAS2B cells. Put plainly: Aspergillus fumigatus infection of bronchial epithelial cells (GM in supernatant). It is filed as cell-based. The note with it: bronchial epithelial cells infected with Aspergillus fumigatus; read-out: MIC50 Infection of BEAS2B cells. Summed up:
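BEAS2B cells in 10% FBS RPMI-1640 pre-treated with compound (0.5% DMSO final) for 1 hr at 35 °C, then infected with A. fumigatus conidia (0.5×10^5/ml suspension) for 24 hr at 35 °C. Galactomannan in 1:20-diluted supernatant measured by Platelia GM-EIA; IC50 from percent-inhibition concentration-response curves.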

Data set [2] has as its system aspergillus fumigatus (ATCC 13073 [strain: NIH 5233]). Put plainly: In vivo anti-fungal activity, prophylactic and therapeutic treatment of infected immunocompromised neutropenic mice. More on the design: species or system A/J mice. The conditions noted are these: for % Inhibition versus Infected Control, GM in BALF / % Inhibition versus Infected Control, GM in serum / % Inhibition versus Infected Control, Lung Fungal Load: therapeutic treatment (days 1, 2 and 3); for % Inhibition versus Infected Controls, GM in BALF / % Inhibition versus Infected Controls, GM in serum / % Inhibition versus Infected Controls, Lung Fungal Load: prophylactic treatment (days 0, 1, 2 and 3).

The test system of data set [3] is Aspergillus fumigatus NCPF7100. Put plainly: Broth microdilution assay (modified EUCAST). Type of data set: cell-based. The conditions noted are these: Aspergillus fumigatus, NCPF7100, read-out: MIC75 against Aspergillus fumigatus isolate NCPF7100.
The subject of data set [4] is Aspergillus fumigatus L98H (TR34/L98H). Put plainly: Broth microdilution assay (modified EUCAST). It is filed as cell-based. The note with it: Aspergillus fumigatus, read-out: MIC75 against Aspergillus fumigatus isolate L98H. A digest of the protocol: (§1)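 Spores from 3-day Sabouraud cultures (working suspension 2 × 10^5 spores/mL) were added to an equal volume of RPMI-1640 (2 mM L-glutamine, 0.5% BSA, 2% glucose, 0.165 M MOPS, pH 7) containing compound, in quadruplicate. After 48 hr at 35 °C, OD530 gave percent inhibition. MIC50, MIC75 and MIC90 came from concentration-response curves.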
In general terms: In broth dilution the organism is exposed to a series of concentrations in liquid medium.

The subject of data set [5] is Aspergillus fumigatus NCPF2010. Put plainly: Broth microdilution assay (modified EUCAST). Type of data set: cell-based. The conditions noted are these: Aspergillus fumigatus, NCPF2010, read-out: MIC75 against Aspergillus fumigatus isolate NCPF2010. Summed up: as §1
The subject of data set [6] is Aspergillus fumigatus NCPF7099. Description: Broth microdilution assay (modified EUCAST). The conditions noted are these: Aspergillus fumigatus, NCPF7099, n = 3, read-out: MIC75 against Aspergillus fumigatus isolate NCPF7099. It is filed as cell-based. A digest of the protocol: as §1
Data set [7] in a line: Cell viability: resazurin assay. It is filed as cell-based, human. The note with it: human, BEAS2B cells; n = 3-5. Summed up: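 BEAS2B cells in RPMI-LHC8, exposed to compound for 1 day at 37 °C (0.5% DMSO final), then resazurin added for a further 4 h. Fluorescence (ex 545/em 590 nm) gives % viability loss vs 0.5% DMSO vehicle; CC50 from concentration-response curve.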
For orientation: Alamar Blue is a resazurin reagent that responds to reducing activity.

Values after ≈ are worked out from the molar mass of the structure shown.

As usually defined, the MIC50 is the lowest concentration that inhibits either 50% of growth or 50% of the strains tested, depending on the study. In general, CC50 refers to the concentration at which the toxic effect on the cells reaches its halfway point. Low readings indicate harm at low concentration, high ones better tolerance by the cells. On to `Cc1nc(N2CCN(c3ccc(C(=O)Nc4ccc(F)cc4)cc3)CC2)ccc1OC[C@@H]1CO[C@@](Cn2cncn2)(c2ccc(F)cc2F)C1` [Example 3, 4-(4-(5-(((3R,5R)-5-((1H-1,2,4-Triazol-1-yl)Methyl)-5-(2,4-Difluorophenyl)Tetra Hydrofuran-3-yl)Methoxy)-6-Methylpyridin-2-yl)Piperazin-1-yl)-N-(4-Fluorophenyl) Benzamide], for which the MIC50 in data set [1] is 0.0517 µM (≈ 0.0353 µg/mL). Also, the “% Inhibition versus Infected Control, GM in BALF” value in data set [2] (0.08 mg/mL) was 95%; in data set [2] (0.4 mg/mL), 86%. Besides, the “% Inhibition versus Infected Control, GM in serum” value in data set [2] (0.08 mg/mL) is 92%; in data set [2] (0.4 mg/mL), 89%. Further, the figures for the “% Inhibition versus Infected Control, Lung Fungal Load” value in data set [2] (0.08 mg/mL) and in data set [2] (0.4 mg/mL) were 98% and 96%, respectively. The MIC in data set [3] amounted to 0.0451 µM (≈ 0.0308 µg/mL); in data set [4] it was 0.033 µM (≈ 0.0226 µg/mL); in data set [5], 0.018 µM (≈ 0.0123 µg/mL); in data set [6], 0.0276 µM (≈ 0.0189 µg/mL). Also, in data set [7], the CC50 at 1 day is greater than 14.6 µM.

Turning to `N#Cc1cc(N2CCN(c3ccc(C(=O)Nc4ccc(F)cc4)cc3)CC2)ccc1OC[C@@H]1CO[C@@](Cn2cncn2)(c2ccc(F)cc2F)C1` [Example 4, 4-(4-(4-(((3R,5R)-5-((1H-1,2,4-Triazol-1-yl)Methyl)-5-(2,4-Difluorophenyl) Tetrahydrofuran-3-yl)Methoxy)-3-Cyanophenyl)Piperazin-1-yl)-N-(4-Fluorophenyl) Benzamide], in data set [1], the MIC50 turned out to be 0.00777 µM (≈ 0.00539 µg/mL). Also, the “% Inhibition versus Infected Controls, GM in BALF” value in data set [2] (0.4 mg/mL) was found to be 84%. The “% Inhibition versus Infected Controls, GM in serum” value in data set [2] (0.4 mg/mL) is listed as 90%. Moreover, the “% Inhibition versus Infected Controls, Lung Fungal Load” value in data set [2] (0.4 mg/mL) is recorded as 85%. The MIC in data set [3] turned out to be 0.0383 µM (≈ 0.0266 µg/mL); in data set [4], 0.0737 µM (≈ 0.0511 µg/mL); in data set [5] it was 0.00868 µM (≈ 0.00602 µg/mL); in data set [6] it was 0.0413 µM (≈ 0.0287 µg/mL). For the same compound, in data set [7], the CC50 at 1 day is greater than 14.4 µM.

For the compound `O=C(Nc1ccc(F)cc1)c1ccc(N2CCN(c3ccc(OC[C@@H]4CO[C@@](Cn5cncn5)(c5ccc(F)cc5F)C4)c(CO)c3)CC2)cc1` [Example 16, 4-(4-(4-(((3R, 5R)-5-((1H-1,2,4-triazol-1-yl)methyl)-5-(2,4-difluorophenyl)tetrahydrofuran-3-yl)methoxy)-3-hydroxymethylphenyl)piperazin-1-yl)-N-(4-fluorophenyl)benzamide], the MIC50 in data set [1] stood at 0.00082 µM (≈ 0.000573 µg/mL). Besides, the “% Inhibition versus Infected Control, GM in BALF” value was 76% in data set [2] (0.08 mg/mL) and 88% in data set [2] (0.4 mg/mL). Besides, the results for the “% Inhibition versus Infected Control, GM in serum” value in data set [2] (0.08 mg/mL) and in data set [2] (0.4 mg/mL) were 62% and 85%, respectively. The “% Inhibition versus Infected Control, Lung Fungal Load” value in data set [2] (0.08 mg/mL) is listed as 91%; in data set [2] (0.4 mg/mL), 96%. In addition, the MIC was 0.00658 µM (≈ 0.0046 µg/mL) in data set [3], 0.0335 µM (≈ 0.0234 µg/mL) in data set [4], 0.00512 µM (≈ 0.00358 µg/mL) in data set [5] and 0.00926 µM (≈ 0.00647 µg/mL) in data set [6]. Besides, in data set [7], the CC50 at 1 day is greater than 14.3 µM.

For the compound `Cc1cc(N2CCN(c3ccc(C(=O)Nc4ccc(S(N)(=O)=O)cc4)cc3)CC2)ccc1OC[C@@H]1CO[C@@](Cn2cncn2)(c2ccc(F)cc2F)C1` [Example 19, 4-(4-(4-(((3R, 5R)-5-((1H-1,2,4-triazol-1-yl)methyl)-5-(2,4-difluorophenyl)tetrahydrofuran-3-yl)methoxy)-3-methylphenyl)piperazin-1-yl)-N-(4-sulfamoylphenyl)benzamide], the MIC50 in data set [1] amounted to 0.0172 µM (≈ 0.0128 µg/mL). The “% Inhibition versus Infected Controls, GM in BALF” value worked out at 16% in data set [2] (0.4 mg/mL) and 41% in data set [2] (2 mg/mL). For the same compound, the entries for the “% Inhibition versus Infected Controls, GM in serum” value in data set [2] (0.4 mg/mL) and in data set [2] (2 mg/mL) were 30% and 47%, respectively. Moreover, the results for the “% Inhibition versus Infected Controls, Lung Fungal Load” value in data set [2] (0.4 mg/mL) and in data set [2] (2 mg/mL) were 62% and 74%, respectively. Also, the MIC in data set [3] is 0.0227 µM (≈ 0.0169 µg/mL); in data set [4] it was 0.0577 µM (≈ 0.0429 µg/mL); in data set [5], 0.0166 µM (≈ 0.0123 µg/mL); in data set [6] it was 0.0089 µM (≈ 0.00662 µg/mL). Further, the CC50 at 1 day in data set [7] is greater than 13.4 µM.

As to `Cc1cc(N2CCN(c3ccc(C(=O)Nc4ccc(C#N)cc4F)cc3)CC2)ccc1OC[C@@H]1CO[C@@](Cn2cncn2)(c2ccc(F)cc2F)C1` [Example 23, 4-(4-(4-(((3R, 5R)-5-((1H-1,2,4-triazol-1-yl)methyl)-5-(2,4-difluorophenyl)tetrahydrofuran-3-yl)methoxy)-3-methylphenyl)piperazin-1-yl)-N-(4-cyano-2-fluorophenyl)benzamide], the MIC50 in data set [1] is 0.00337 µM (≈ 0.00239 µg/mL). Further, in data set [2] (0.4 mg/mL), the “% Inhibition versus Infected Controls, GM in BALF” value is 71%. In addition, the “% Inhibition versus Infected Controls, GM in serum” value in data set [2] (0.4 mg/mL) is 79%. Further, in data set [2] (0.4 mg/mL), the “% Inhibition versus Infected Controls, Lung Fungal Load” value is 56%. Further, the MIC in data set [3] came out at 0.0443 µM (≈ 0.0314 µg/mL); in data set [4], 0.0602 µM (≈ 0.0426 µg/mL); in data set [5], 0.0126 µM (≈ 0.00892 µg/mL); in data set [6], 0.0284 µM (≈ 0.0201 µg/mL). For the same compound, the CC50 at 1 day in data set [7] is greater than 14.1 µM.

Regarding `Cc1cc(N2CCN(c3ccc(C(=O)Nc4cccc(C#N)n4)cc3)CC2)ccc1OC[C@@H]1CO[C@@](Cn2cncn2)(c2ccc(F)cc2F)C1` [Example 36, 4-(4-(4-(((3R, 5R)-5-((1H-1,2,4-triazol-1-yl)methyl)-5-(2,4-difluorophenyl)tetrahydrofuran-3-yl)methoxy)3-methylphenyl)piperazin-1-yl)-N-(6-cyanopyridin-2-yl)benzamide], the MIC50 in data set [1] is 0.00352 µM (≈ 0.00243 µg/mL). Also, the MIC in data set [3] was found to be 0.0346 µM (≈ 0.0239 µg/mL); in data set [4], 0.134 µM (≈ 0.0926 µg/mL); in data set [5], 0.041 µM (≈ 0.0283 µg/mL); in data set [6], 0.0445 µM (≈ 0.0307 µg/mL). In addition, in data set [7], the CC50 at 1 day was greater than 14.5 µM.

Consider `Cc1cc(N2CCN(c3ccc(C(=O)Nc4cc(C#N)ccn4)cc3)CC2)ccc1OC[C@@H]1CO[C@@](Cn2cncn2)(c2ccc(F)cc2F)C1` [Example 37, 4-(4-(4-(((3R,5R)-5-((1H-1,2,4-triazol-1-yl)methyl)-5-(2,4-difluorophenyl)tetrahydrofuran-3-yl)methoxy)-3-methylphenyl)piperazin-1-yl)-N-(4-cyanopyridin-2-yl)benzamide], for which, in data set [1], the MIC50 is 0.0188 µM (≈ 0.013 µg/mL). Besides, the MIC was 0.022 µM (≈ 0.0152 µg/mL) in data set [3], 0.194 µM (≈ 0.134 µg/mL) in data set [4], 0.0284 µM (≈ 0.0196 µg/mL) in data set [5] and 0.0246 µM (≈ 0.017 µg/mL) in data set [6]. In data set [7], this compound came in with a CC50 at 1 day greater than 14.5 µM.

Turning to `N#Cc1ccc(NC(=O)c2ccc(N3CCN(c4ccc(OC[C@@H]5CO[C@@](Cn6cncn6)(c6ccc(F)cc6F)C5)c(CO)c4)CC3)cc2)nc1` [Example 38, 4-(4-(4-(((3R, 5R)-5-((1H-1,2,4-triazol-1-yl)methyl)-5-(2,4-difluorophenyl)tetrahydrofuran-3-yl)methoxy)-3-hydroxymethylphenyl)piperazin-1-yl)-N-(5-cyanopyridin-2-yl)benzamide], the MIC50 in data set [1] amounted to 0.00486 µM (≈ 0.00343 µg/mL). Also, the MIC in data set [3] was determined as 0.0336 µM (≈ 0.0237 µg/mL); in data set [4], 0.0654 µM (≈ 0.0462 µg/mL); in data set [5], 0.0124 µM (≈ 0.00876 µg/mL); in data set [6] it was 0.0319 µM (≈ 0.0225 µg/mL). The CC50 at 1 day in data set [7] is greater than 14.1 µM.
